From PubChem BioAssay (NCI)
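The compound was tested at five concentrations on cells cultured in 96-well plates, with a 48-hour exposure period. Abbreviation: GI50, concentration required for 50% inhibition of growth. TGI is the concentration that stops growth completely.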

What was measured:
Test in all cases: inhibition of tumour cell growth, NCI panel, 48 h
[1] = system: HCT-15 colon
[2] = system: RPMI-8226 leukemia
[3] = system: HL-60(TB) leukemia
[4] = system: M14 melanoma
[5] = system: EKVX NSCLC
[6] = system: HT29 colon
[7] = system: SK-MEL-28 melanoma
[8] = system: HS 578T breast
[9] = system: ACHN renal
[10] = system: UACC-257 melanoma

SMILES	GI50 [1]	TGI [1]	GI50 [2]	TGI [2]	GI50 [3]	TGI [3]	GI50 [4]	TGI [4]	GI50 [5]	TGI [5]	GI50 [6]	TGI [6]	GI50 [7]	TGI [7]	GI50 [8]	TGI [8]	GI50 [9]	TGI [9]	GI50 [10]	TGI [10]
COc1cc2c3c(n(CCCN=[N+]=[N-])c(=O)c2cc1OC)-c1ccc([N+](=O)[O-])cc1C3=O	> 100 µM	> 100 µM	90.7 µM	> 100 µM	> 100 µM	> 100 µM	> 100 µM	> 100 µM	40.1 µM	> 100 µM	> 100 µM	> 100 µM	> 100 µM	> 100 µM	48 µM	> 100 µM	> 100 µM	> 100 µM	> 100 µM	> 100 µM
Nc1nc(Sc2ccc([N+](=O)[O-])c3nonc23)c2ncn(C3OC(CO)C(O)C3O)c2n1 (stereo not drawn)	0.587 µM	11.9 µM	0.278 µM	15.2 µM	3.7 µM	23.5 µM	0.456 µM	8.15 µM	2.88 µM	> 49.8 µM	0.846 µM	16.2 µM	11.7 µM	26.6 µM	7.89 µM	46.3 µM	0.609 µM	23.8 µM		> 44.8 µM
COc1cc(-n2cc(-c3ccc(Cl)cc3)n(-c3ccccc3)c2=O)cc(OC)c1OC	8.54 µM	> 100 µM	30.6 µM	> 100 µM	2.82 µM	> 47.6 µM	23.8 µM	98.9 µM	18.5 µM	> 100 µM	16.6 µM	> 100 µM	21.4 µM	> 100 µM	25.6 µM	> 100 µM	25.8 µM	> 100 µM	15.5 µM	71.9 µM
Cn1cnc([N+](=O)[O-])c1S(=O)(=O)Oc1ccc(Cl)cc1	1.64 µM	3.47 µM	3.58 µM	17.7 µM	1.85 µM	3.77 µM	2.36 µM	5.21 µM	19.1 µM	49.6 µM	2.33 µM	5.36 µM	19.2 µM	51.8 µM	19.6 µM	68.1 µM	1.8 µM	3.28 µM	3.59 µM	16.6 µM
CCOC(=O)Cc1csc(NC(=O)C(OC(=O)c2ccc(Cl)cc2)c2ccccc2)n1 (stereo not drawn)	51.6 µM	> 100 µM	17.1 µM	46.6 µM	9.28 µM	68.9 µM	22.1 µM	52 µM	59.6 µM	> 100 µM	27 µM	88 µM	25.2 µM	69.2 µM	54.8 µM	> 100 µM	62.1 µM	> 100 µM	41.3 µM	> 100 µM
ClCc1ccccc1Cn1cnc2nc(Cl)nc(Cl)c21	0.197 µM	0.434 µM	0.0318 µM	0.272 µM	1.35 µM	8.45 µM	0.851 µM	2.46 µM	0.62 µM	1.54 µM	0.412 µM	> 100 µM	0.582 µM		0.331 µM	1.22 µM	0.209 µM	0.609 µM	1.6 µM	5.22 µM
COc1cc2c(cc1OC)[C@@H]1C(=O)c3ccc4c(c3O[C@@H]1CO2)C[C@H](C(C)C)O4	9.26 µM	> 71 µM	0.0152 µM	9.08 µM	1.51 µM	> 23.8 µM	7.86 µM	> 59.4 µM	0.239 µM	> 48.2 µM	15.4 µM	> 58.6 µM	15.4 µM	> 58.2 µM	8.15 µM	> 46.6 µM	3.13 µM	> 46.4 µM	4.19 µM	> 57.7 µM
Cc1nnn(C)c1-c1cnc2c3ccc(C(C)(C)O)cc3n([C@H](c3ccccc3)C3CCOCC3)c2c1	< 0.0106 µM	14.6 µM	< 0.01 µM	27.9 µM	< 0.01 µM	48.1 µM	< 0.01 µM	30.9 µM	0.221 µM	> 71.7 µM	< 0.01 µM	> 42 µM	1.96 µM	> 100 µM	< 0.01 µM	> 100 µM	0.0243 µM	14.9 µM	< 0.0132 µM	31.3 µM
COc1ccc(Nc2ncc(I)c(NCCCNC(=O)C3CCC3)n2)cc1	5.88 µM	52.1 µM	10.3 µM	53.8 µM	3.47 µM	14.7 µM	13.4 µM	> 100 µM	6.48 µM	76.6 µM	13.1 µM	71 µM	18 µM	> 100 µM	2.94 µM	13.2 µM	3.65 µM	> 100 µM	15 µM	93 µM
OCc1ccc(-c2nc(-c3ccc4c(c3)OCO4)c(-c3ccccn3)[nH]2)cc1	15.1 µM	> 25 µM	15.9 µM	> 25 µM	> 25 µM	> 25 µM	> 25 µM	> 25 µM	> 25 µM	> 25 µM	> 25 µM	> 25 µM	> 25 µM	> 25 µM	> 25 µM	> 25 µM	> 25 µM	> 25 µM	> 25 µM	> 25 µM
COc1ccc(O)c(/C=N\Nc2ccccc2)c1		> 100 µM		5.94 µM		17.4 µM		73.2 µM		> 100 µM		29.9 µM		91.4 µM		> 100 µM		> 100 µM		> 100 µM
Oc1ccc(N=Nc2ccc(Br)cc2)c(O)c1	3.42 µM	19.4 µM	1.76 µM	5.35 µM	1.71 µM	4.53 µM	2.2 µM	5.62 µM	3.86 µM	38.7 µM	15.5 µM	77.9 µM	7.97 µM	> 100 µM	2.2 µM	6.77 µM	5.44 µM	37.5 µM	7.52 µM	30.7 µM
CCOC(=O)c1ccc(N2NC(=O)/C(=C/c3ccc([N+](=O)[O-])o3)C2=O)cc1	13.6 µM	31.5 µM	30.1 µM	> 96.5 µM	11.7 µM	47.4 µM	17 µM	31.6 µM	> 37.7 µM	> 53.1 µM	15.8 µM	36.2 µM	18.6 µM	36 µM	> 45.6 µM	> 75.1 µM	8.27 µM	20.8 µM	16 µM	30.8 µM
CCc1cc2c(c(OCC(F)(F)F)c(C(=O)NC3CCN(C(=O)CO)CC3)n2C)c(=O)n1CC(=O)c1ccccc1	52.3 µM	> 100 µM	27.7 µM	> 100 µM	59.3 µM	> 100 µM	> 100 µM	> 100 µM	> 100 µM	> 100 µM	65 µM	> 100 µM	70.4 µM	> 100 µM	34.4 µM	> 100 µM	> 64.5 µM	> 100 µM	> 82.2 µM	> 100 µM
COc1cccc(S(=O)(=O)NC2=NCCN2C(=S)SN2CCn3c2nsc3=S)c1	21.6 µM	43.7 µM	26.1 µM	97.6 µM	26.1 µM	79.4 µM	31.4 µM	> 100 µM	95.7 µM	> 100 µM	40.2 µM	> 100 µM	31.4 µM	74.2 µM	90.3 µM	> 100 µM	15.6 µM	29.8 µM	31.5 µM	86.2 µM
Nc1nc(-c2cccnc2)cc(-c2cc(-c3cccnc3)nc(N)n2)n1		> 100 µM		> 100 µM		> 100 µM		> 100 µM		> 100 µM		> 100 µM		> 100 µM		> 100 µM		> 100 µM		> 100 µM
COc1cccc2c1C(=O)c1c(O)c3c(c(O)c1C2=O)C[C@](O)(C(=O)CO)C[C@H]3O[C@@H]1C[C@@H](NC(=O)CCCN(C)C2(c3ccc(F)cc3)CC3CCC2C3)[C@H](O)[C@@H](C)O1 (stereo partly drawn)	0.971 µM	2.25 µM	0.946 µM	2.23 µM	1.17 µM	3.01 µM	0.925 µM	1.73 µM	0.917 µM	2.01 µM	0.881 µM	1.92 µM	0.946 µM	1.72 µM	6.78 µM	20.9 µM	0.736 µM	1.4 µM	0.984 µM	1.73 µM
